Assay results: patent US20250223268A1, “4-Methylsulfonylbenzamide Compound, Preparation Method, Herbicidal Composition And Use” (Jiangsu Flag Chemical Industry Co., Ltd., priority 2022, published 2025)

What was measured:
Type in all cases: in vivo
Echinochloa crusgalli [1] = assay: Greenhouse herbicidal activity and crop safety comparison (Test Example 2)
How it was run: (§1)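 Fresh weight inhibition, banded into grades A to E (E <20%), was rated 14-21 days after foliar spraying of 3-6 leaf plants, or 14-30 days after a soil spray applied 24 h post-sowing.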

Leptochloa chinensis [2] = assay: as above
How it was run: as §1

[3] = system: Oryza sativa subsp. indica; assay: as above
How it was run: as §1

[4] = system: Oryza sativa subsp. japonica; assay: as above
How it was run: as §1

Cyperus iria = assay: Greenhouse herbicidal activity assay, post-emergence; conditions: Post-emergence test, rate 150 g a.i./hm^2, grade by fresh weight inhibition rate
How it was run: (§2)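 Weeds and crops grown in pots of nutrient soil in a growth chamber to the 3-6 leaf stage, then foliar-sprayed and air-dried. Fresh weight inhibition scored 14-21 days after treatment and graded A (≥80%) through E (<20%).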

Digitaria sanguinalis = assay: as above; conditions: Post-emergence test, rate 150 g a.i./hm^2, grade by fresh weight inhibition rate
How it was run: as §2

Echinochloa crusgalli [5] = assay: as above; conditions: Post-emergence test, rate 150 g a.i./hm^2, grade by fresh weight inhibition rate
How it was run: as §2

Eclipta prostrata = assay: as above; conditions: Post-emergence test, rate 150 g a.i./hm^2, grade by fresh weight inhibition rate
How it was run: as §2

Leptochloa chinensis [6] = assay: as above; conditions: Post-emergence test, rate 150 g a.i./hm^2, grade by fresh weight inhibition rate
How it was run: as §2

Compound	Echinochloa crusgalli, control efficacy grading (fresh weight inhibition rate) (Echinochloa crusgalli [1]; Rate 150 g/ha)	Leptochloa chinensis, control efficacy grading (fresh weight inhibition rate) (Leptochloa chinensis [2]; Rate 150 g/ha)	Oryza sativa subsp. indica, grading of fresh weight inhibition rate (crop safety) ([3]; Rate 150 g/ha)	Oryza sativa subsp. japonica, grading of fresh weight inhibition rate (crop safety) ([4]; Rate 150 g/ha)	Control efficacy grade, Cyperus iria (Cyperus iria)	Control efficacy grade, Digitaria sanguinalis (Digitaria sanguinalis)	Control efficacy grade, Echinochloa crusgalli (Echinochloa crusgalli [5])	Control efficacy grade, Eclipta prostrata (Eclipta prostrata)	Control efficacy grade, Leptochloa chinensis (Leptochloa chinensis [6])	inhibition at 150 g/ha (Echinochloa crusgalli [1]; Echinochloa crus-galli, Rate 150 g/ha, read-out: Echinochloa crusgalli, control efficacy grading (fresh weight inhibition rate))	inhibition at 150 g/ha (Leptochloa chinensis [2]; Dinebra chinensis, Rate 150 g/ha, read-out: Leptochloa chinensis, control efficacy grading (fresh weight inhibition rate))	pest or weed control at 150 g/ha (Cyperus iria; Cyperus iria, read-out: Control efficacy grade, Cyperus iria)	pest or weed control at 150 g/ha (Digitaria sanguinalis; Digitaria sanguinalis, read-out: Control efficacy grade, Digitaria sanguinalis)	pest or weed control at 150 g/ha (Echinochloa crusgalli [5]; Echinochloa crus-galli, read-out: Control efficacy grade, Echinochloa crusgalli)	pest or weed control at 150 g/ha (Eclipta prostrata; Eclipta prostrata, read-out: Control efficacy grade, Eclipta prostrata)	pest or weed control at 150 g/ha (Leptochloa chinensis [6]; Dinebra chinensis, read-out: Control efficacy grade, Leptochloa chinensis)	Echinochloa crusgalli, control efficacy grading (fresh weight inhibition rate) (Echinochloa crusgalli [1]; Rate 250 g/ha)	Leptochloa chinensis, control efficacy grading (fresh weight inhibition rate) (Leptochloa chinensis [2]; Rate 250 g/ha)	Oryza sativa subsp. indica, grading of fresh weight inhibition rate (crop safety) ([3]; Rate 250 g/ha)	Oryza sativa subsp. japonica, grading of fresh weight inhibition rate (crop safety) ([4]; Rate 250 g/ha)
CCC(C)S(=O)(=O)c1c(S(C)(=O)=O)ccc(C(=O)Nc2nnc(C(C)C)o2)c1Cl (racemic) [Compound 3-522]	A (Fresh weight inhibition rate≥80% to 100%)	A (Fresh weight inhibition rate≥80% to 100%)	E (Fresh weight inhibition rate<20%)	E (Fresh weight inhibition rate<20%)	A (Fresh weight inhibition rate≥80% to 100%)	C (Fresh weight inhibition rate≥40% to <60%)	A (Fresh weight inhibition rate≥80% to 100%)	A (Fresh weight inhibition rate≥80% to 100%)	A (Fresh weight inhibition rate≥80% to 100%)											
CCC(C)S(=O)(=O)c1c(S(C)(=O)=O)ccc(C(=O)Nc2nnc(C3CC3)o2)c1Cl (racemic) [Compound 3-638]	A (Fresh weight inhibition rate≥80% to 100%)	A (Fresh weight inhibition rate≥80% to 100%)	E (Fresh weight inhibition rate<20%)	E (Fresh weight inhibition rate<20%)	A (Fresh weight inhibition rate≥80% to 100%)	B (Fresh weight inhibition rate≥260% to <80%)	A (Fresh weight inhibition rate≥80% to 100%)	A (Fresh weight inhibition rate≥80% to 100%)	A (Fresh weight inhibition rate≥80% to 100%)											
CCCS(=O)(=O)c1c(S(C)(=O)=O)ccc(C(=O)Nc2nnc(C)o2)c1Cl [Compound 3-5]	A (Fresh weight inhibition rate≥80% to 100%)	A (Fresh weight inhibition rate≥80% to 100%)	E (Fresh weight inhibition rate<20%)	E (Fresh weight inhibition rate<20%)	A (Fresh weight inhibition rate≥80% to 100%)	A (Fresh weight inhibition rate≥80% to 100%)	A (Fresh weight inhibition rate≥80% to 100%)	A (Fresh weight inhibition rate≥80% to 100%)	A (Fresh weight inhibition rate≥80% to 100%)											
Cc1nnc(NC(=O)c2ccc(S(C)(=O)=O)c(S(=O)(=O)C(C)C)c2Cl)o1 [Compound 3-10, 2-chloro-3-(isopropylsulfonyl)-N-(5-methyl-1,3,4-oxadiazol-2-yl)-4-(methylsulfonyl)benzamide]			E (Fresh weight inhibition rate<20%)	E (Fresh weight inhibition rate<20%)						80 to 100%	80 to 100%	80 to 100%	80 to 100%	80 to 100%	80 to 100%	80 to 100%				
CCCCS(=O)(=O)c1c(S(C)(=O)=O)ccc(C(=O)Nc2nnc(C)o2)c1Cl [Compound 3-15]					B (Fresh weight inhibition rate≥260% to <80%)	B (Fresh weight inhibition rate≥260% to <80%)	B (Fresh weight inhibition rate≥260% to <80%)	A (Fresh weight inhibition rate≥80% to 100%)	B (Fresh weight inhibition rate≥260% to <80%)								A (Fresh weight inhibition rate≥80% to 100%)	A (Fresh weight inhibition rate≥80% to 100%)	E (Fresh weight inhibition rate<20%)	E (Fresh weight inhibition rate<20%)
Cc1nnc(NC(=O)c2ccc(S(C)(=O)=O)c(S(=O)(=O)CC(C)C)c2Cl)o1 [Compound 3-31]					A (Fresh weight inhibition rate≥80% to 100%)	A (Fresh weight inhibition rate≥80% to 100%)	B (Fresh weight inhibition rate≥260% to <80%)	A (Fresh weight inhibition rate≥80% to 100%)	A (Fresh weight inhibition rate≥80% to 100%)								A (Fresh weight inhibition rate≥80% to 100%)	A (Fresh weight inhibition rate≥80% to 100%)	E (Fresh weight inhibition rate<20%)	E (Fresh weight inhibition rate<20%)
Cc1nnc(NC(=O)c2ccc(S(C)(=O)=O)c(S(=O)(=O)CC3CC3)c2Cl)o1 [Compound 3-41]	A (Fresh weight inhibition rate≥80% to 100%)	A (Fresh weight inhibition rate≥80% to 100%)	E (Fresh weight inhibition rate<20%)	E (Fresh weight inhibition rate<20%)	A (Fresh weight inhibition rate≥80% to 100%)	A (Fresh weight inhibition rate≥80% to 100%)	A (Fresh weight inhibition rate≥80% to 100%)	A (Fresh weight inhibition rate≥80% to 100%)	A (Fresh weight inhibition rate≥80% to 100%)											
Cc1nnc(NC(=O)c2ccc(S(C)(=O)=O)c(S(=O)(=O)C3CC3)c2Cl)o1 [Compound 3-81]	A (Fresh weight inhibition rate≥80% to 100%)	A (Fresh weight inhibition rate≥80% to 100%)	E (Fresh weight inhibition rate<20%)	E (Fresh weight inhibition rate<20%)	A (Fresh weight inhibition rate≥80% to 100%)	A (Fresh weight inhibition rate≥80% to 100%)	A (Fresh weight inhibition rate≥80% to 100%)	A (Fresh weight inhibition rate≥80% to 100%)	A (Fresh weight inhibition rate≥80% to 100%)											
Cc1nnc(NC(=O)c2ccc(S(C)(=O)=O)c(S(=O)(=O)C3CCC3)c2Cl)o1 [Compound 3-86]	A (Fresh weight inhibition rate≥80% to 100%)	A (Fresh weight inhibition rate≥80% to 100%)	E (Fresh weight inhibition rate<20%)	E (Fresh weight inhibition rate<20%)	A (Fresh weight inhibition rate≥80% to 100%)	A (Fresh weight inhibition rate≥80% to 100%)	A (Fresh weight inhibition rate≥80% to 100%)	A (Fresh weight inhibition rate≥80% to 100%)	A (Fresh weight inhibition rate≥80% to 100%)											
Cc1nnc(NC(=O)c2ccc(S(C)(=O)=O)c(S(=O)(=O)C3CCCC3)c2Cl)o1 [Compound 3-91]	A (Fresh weight inhibition rate≥80% to 100%)	A (Fresh weight inhibition rate≥80% to 100%)	E (Fresh weight inhibition rate<20%)	E (Fresh weight inhibition rate<20%)	A (Fresh weight inhibition rate≥80% to 100%)	A (Fresh weight inhibition rate≥80% to 100%)	A (Fresh weight inhibition rate≥80% to 100%)	A (Fresh weight inhibition rate≥80% to 100%)	A (Fresh weight inhibition rate≥80% to 100%)											
